In publication PMC9667546, “Selective Inhibition of Bruton’s Tyrosine Kinase by a Designed Covalent Ligand Leads to Potent Therapeutic Efficacy in Blood Cancers Relative to Clinically Used Inhibitors” (ACS Pharmacology & Translational Science, 2022):
Values joined by “and” are separate entries in the source; they are usually repeats but may differ in a detail not shown here. Identical values can stand only once. Like-named read-outs stand apart in the source and are kept apart here.

Columns and labels:
ITK = target: T1, ITK (Homo sapiens, UniProt Q08881); test: NanoBRET in-cell target engagement, ITK; format: binding
T1 construct: host or cells: HEK296T (so in the source)
T1 sequence (Q08881 1-620): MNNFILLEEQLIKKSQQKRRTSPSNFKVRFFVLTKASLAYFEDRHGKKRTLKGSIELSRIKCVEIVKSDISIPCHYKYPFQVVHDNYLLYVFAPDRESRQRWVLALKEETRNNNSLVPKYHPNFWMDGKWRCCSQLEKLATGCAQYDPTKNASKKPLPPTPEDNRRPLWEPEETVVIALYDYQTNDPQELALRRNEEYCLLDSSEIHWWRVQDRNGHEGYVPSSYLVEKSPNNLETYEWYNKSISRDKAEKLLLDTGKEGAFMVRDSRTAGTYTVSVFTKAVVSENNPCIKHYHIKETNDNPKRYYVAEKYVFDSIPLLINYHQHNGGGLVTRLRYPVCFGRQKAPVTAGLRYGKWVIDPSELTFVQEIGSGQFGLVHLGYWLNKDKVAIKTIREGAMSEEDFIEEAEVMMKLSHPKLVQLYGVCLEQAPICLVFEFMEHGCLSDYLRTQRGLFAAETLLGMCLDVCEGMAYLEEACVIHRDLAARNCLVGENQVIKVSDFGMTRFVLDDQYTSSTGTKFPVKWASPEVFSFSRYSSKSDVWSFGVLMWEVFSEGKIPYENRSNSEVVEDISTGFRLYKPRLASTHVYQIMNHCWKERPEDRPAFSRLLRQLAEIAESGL
Protocol: (§1) In-cell target engagement was performed at Reaction Biology Corporation, using NanoBRET technology. Very briefly, HEK296T cells were transfected and treated in duplicate with JS25 for 1 h of incubation. The compound was diluted 10 times with 3-fold dilution, starting at 1 μM. Curve fits were performed only when the % NanoBret signal at the highest concentration of compounds was less than 55%. The IC50 values were determined using GraphPad Prism 8 ([…]).

EGFR = target: T2, EGFR (Homo sapiens, UniProt P00533); test: NanoBRET in-cell target engagement, EGFR; format: binding; conditions: HEK296T cells, 1 h incubation, average of duplicates
T2 construct: host or cells: HEK296T (so in the source)
Protocol: as §1

JAK3 = target: T3, JAK3 (Homo sapiens, UniProt P52333); test: NanoBRET in-cell target engagement, JAK3; format: binding; conditions: HEK296T cells, 1 h incubation, average of duplicates
T3 construct: host or cells: HEK296T (so in the source)
Protocol: as §1

DoHH-2 cells (DLBCL) = test: Cell viability assay (CellTiter-Glo), DoHH-2; format: cell-based; conditions: Homo sapiens, 72 h, n = 3
Protocol: (§2) All cell lines were purchased from ATCC, except for DoHH-2 cells that were obtained from DSMZ. Cells were cultivated in complete DMEM supplemented with 10% (vol/vol) FBS (Gibco) and 1% of penicillin/streptomycin (Gibco). The cells were grown in a humidified atmosphere of 5% CO2 at 37°C, with the medium changed every other day.
(§3) Cells were inoculated at a density of 5000 cells/well. Serially diluted compounds (starting at 50 μM) were added 24 h later. The assay was performed in triplicates. After 72 h of incubation, cellular viability was assessed by CellTiter-Glo (Promega) according to the manufacturer’s instructions. The values were normalized with the vehicle (DMSO), and the IC50 was calculated using GraphPad Prism 8.

WA-C3CD5+ cells (CLL) = test: Cell viability assay (CellTiter-Glo), WA-C3CD5+; format: cell-based; conditions: 72 h, n = 3
Mo1043 cells (CLL) = test: Cell viability assay (CellTiter-Glo), Mo1043; format: cell-based; conditions: 72 h, n = 3
MOLM-13 cells (AML) = test: Cell viability assay (CellTiter-Glo), MOLM-13; format: cell-based; conditions: Homo sapiens, 72 h, n = 3
Protocol: as §2, §3

Raji cells = test: Mice xenograft model of Burkitt’s lymphoma (subcutaneous Raji cells); format: in vivo; conditions: for Metastasis volume, Brain, Average / Metastasis volume, Liver, Average / Metastasis volume, Lung, Average / Metastasis volume, Spinal, Average / Secondary tumour, Average: average of 5 animals, stereological analysis; for Metastasis volume, Brain, single animals / Metastasis volume, Liver, single animals / Metastasis volume, Lung, single animals / Metastasis volume, Spinal, single animals / Secondary tumour, single animals: individual animals #1 to #5 in order
Protocol: Female adult BALB/c/NSG mice were injected subcutaneously with 1 × 10^6 Raji cells, in a 1:1 solution of Matrigel Matrix (Corning) to create solid tumors. When tumors reached 180 mm^3 on average, mice were randomized into four groups (n = 6/group), and dosing began every 2 days. […] Tumor size and body weight were monitored periodically for 12 days. At the end of the experiment, mice necropsies were performed. Stereological analysis was conducted by the Histopathology Unit at Instituto Gulbenkian de Ciência and by the Comparative Pathology Unit at Instituto de Medicina Molecular João Lobo Antunes. Quantification of metastases and cell necrosis was performed in all groups (n = 5/group). Statistical analysis was conducted using one-way ANOVA. The Dunnet test was used to analyze the statistical significance between the treatment groups and the control.

BTK = BTK (Homo sapiens, UniProt Q06187); test: NanoBRET in-cell target engagement, BTK; format: binding; set-up: purchased Promega Corporation V2941
Protocol: as §1

BTK, sequence (Q06187 whole entry): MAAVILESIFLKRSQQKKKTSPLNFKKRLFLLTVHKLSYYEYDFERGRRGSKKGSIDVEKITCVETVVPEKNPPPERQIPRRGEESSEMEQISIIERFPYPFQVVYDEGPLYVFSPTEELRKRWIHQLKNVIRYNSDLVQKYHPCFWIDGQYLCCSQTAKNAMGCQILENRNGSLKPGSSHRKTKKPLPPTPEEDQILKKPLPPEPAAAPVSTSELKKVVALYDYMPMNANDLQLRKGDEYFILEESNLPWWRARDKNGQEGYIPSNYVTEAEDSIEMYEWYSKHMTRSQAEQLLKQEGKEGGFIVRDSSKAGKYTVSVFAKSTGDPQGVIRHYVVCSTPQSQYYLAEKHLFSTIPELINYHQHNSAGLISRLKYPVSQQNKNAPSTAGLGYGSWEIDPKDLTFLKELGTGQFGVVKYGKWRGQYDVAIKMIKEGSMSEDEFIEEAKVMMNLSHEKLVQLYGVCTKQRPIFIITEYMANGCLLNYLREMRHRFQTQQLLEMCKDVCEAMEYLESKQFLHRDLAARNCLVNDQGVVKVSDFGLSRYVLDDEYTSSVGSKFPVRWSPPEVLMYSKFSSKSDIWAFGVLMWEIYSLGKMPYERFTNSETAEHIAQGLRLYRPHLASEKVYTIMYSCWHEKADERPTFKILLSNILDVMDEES
T3 sequence (P52333 whole entry): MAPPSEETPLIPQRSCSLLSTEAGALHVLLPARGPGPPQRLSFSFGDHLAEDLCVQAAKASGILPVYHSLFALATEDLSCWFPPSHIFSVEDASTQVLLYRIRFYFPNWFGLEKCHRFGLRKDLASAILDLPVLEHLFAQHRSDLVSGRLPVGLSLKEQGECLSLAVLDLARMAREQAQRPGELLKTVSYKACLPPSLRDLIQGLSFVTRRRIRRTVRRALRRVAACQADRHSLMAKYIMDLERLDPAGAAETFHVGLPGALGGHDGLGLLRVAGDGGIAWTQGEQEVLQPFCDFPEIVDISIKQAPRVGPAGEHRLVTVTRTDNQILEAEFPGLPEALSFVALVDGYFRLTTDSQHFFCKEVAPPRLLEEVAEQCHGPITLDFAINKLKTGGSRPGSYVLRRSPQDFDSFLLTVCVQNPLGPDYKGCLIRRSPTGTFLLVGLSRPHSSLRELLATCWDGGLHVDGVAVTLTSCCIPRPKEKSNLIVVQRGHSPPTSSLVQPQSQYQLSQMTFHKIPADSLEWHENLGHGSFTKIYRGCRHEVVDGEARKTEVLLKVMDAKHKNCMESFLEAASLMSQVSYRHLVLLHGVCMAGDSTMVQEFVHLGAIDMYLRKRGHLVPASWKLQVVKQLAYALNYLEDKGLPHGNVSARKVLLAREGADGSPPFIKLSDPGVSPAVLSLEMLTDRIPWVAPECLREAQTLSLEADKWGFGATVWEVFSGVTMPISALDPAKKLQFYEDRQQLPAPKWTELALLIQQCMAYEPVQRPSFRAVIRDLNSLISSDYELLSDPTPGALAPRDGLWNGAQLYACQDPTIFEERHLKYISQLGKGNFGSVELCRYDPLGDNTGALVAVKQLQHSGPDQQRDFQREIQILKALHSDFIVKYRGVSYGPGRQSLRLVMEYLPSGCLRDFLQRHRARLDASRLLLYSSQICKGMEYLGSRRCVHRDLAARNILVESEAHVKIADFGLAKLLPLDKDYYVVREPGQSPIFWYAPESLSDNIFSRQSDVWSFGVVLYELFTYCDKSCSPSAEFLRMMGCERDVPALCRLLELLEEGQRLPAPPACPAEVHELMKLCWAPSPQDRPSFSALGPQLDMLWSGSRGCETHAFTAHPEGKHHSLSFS
T2 sequence (P00533 25-1210): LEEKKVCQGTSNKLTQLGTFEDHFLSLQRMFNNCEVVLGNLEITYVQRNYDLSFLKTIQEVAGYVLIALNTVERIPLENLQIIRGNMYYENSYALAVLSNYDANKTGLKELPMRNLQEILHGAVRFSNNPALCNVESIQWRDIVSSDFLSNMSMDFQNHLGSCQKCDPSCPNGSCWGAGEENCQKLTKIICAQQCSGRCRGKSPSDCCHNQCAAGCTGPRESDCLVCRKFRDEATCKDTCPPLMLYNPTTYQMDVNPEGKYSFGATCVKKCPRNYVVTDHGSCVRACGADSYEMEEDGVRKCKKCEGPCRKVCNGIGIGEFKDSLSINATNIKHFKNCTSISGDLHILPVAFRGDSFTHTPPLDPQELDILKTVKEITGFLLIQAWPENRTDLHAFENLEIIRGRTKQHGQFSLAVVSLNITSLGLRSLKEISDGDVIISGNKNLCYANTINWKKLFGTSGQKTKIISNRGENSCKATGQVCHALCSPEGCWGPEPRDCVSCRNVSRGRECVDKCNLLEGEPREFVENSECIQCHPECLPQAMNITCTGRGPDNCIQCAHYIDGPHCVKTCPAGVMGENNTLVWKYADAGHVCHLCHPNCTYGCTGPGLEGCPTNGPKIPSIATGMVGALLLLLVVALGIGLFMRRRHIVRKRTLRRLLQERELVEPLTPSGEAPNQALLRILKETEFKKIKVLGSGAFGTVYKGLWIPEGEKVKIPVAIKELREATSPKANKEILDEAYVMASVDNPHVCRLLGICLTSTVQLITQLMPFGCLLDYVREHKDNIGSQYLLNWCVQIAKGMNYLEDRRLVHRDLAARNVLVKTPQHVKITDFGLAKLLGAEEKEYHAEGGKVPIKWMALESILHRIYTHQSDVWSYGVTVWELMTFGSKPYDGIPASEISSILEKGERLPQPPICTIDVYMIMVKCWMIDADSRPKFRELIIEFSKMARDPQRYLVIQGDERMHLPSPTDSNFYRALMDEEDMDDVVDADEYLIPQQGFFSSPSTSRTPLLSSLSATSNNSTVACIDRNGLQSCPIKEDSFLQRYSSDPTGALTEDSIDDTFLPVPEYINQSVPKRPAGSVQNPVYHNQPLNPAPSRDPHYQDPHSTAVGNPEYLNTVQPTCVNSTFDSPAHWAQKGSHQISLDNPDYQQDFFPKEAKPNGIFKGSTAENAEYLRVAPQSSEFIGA

selectivity for BTK relative to ITK (ITK): 15 fold | IC50 (ITK; HEK296T cells, 1 h incubation, average of duplicates): 0.44 µM | selectivity (kinase/BTK), ITK (ITK; IC50 kinase/IC50 BTK): 15.4 | IC50 (EGFR): > 3 µM | IC50 (JAK3): > 3 µM | IC50 (MOLM-13 cells (AML)): ~0.51 µM | IC50 (BTK; HEK296T cells, 1 h incubation, average of duplicates, read-out: IC50 (M), BTK): 2.85e-08 M | selectivity (kinase/BTK), BTK (BTK; IC50 kinase/IC50 BTK): 1 | IC50 (BTK; NanoBRET value as given in text and Table S3, read-out: IC50, BTK): 2.8e-08 M
SMILES: C=CC(=O)Nc1cc(C)cc(-n2c(=O)ccc3cnc4ccc(-c5ccc(NS(C)(=O)=O)cc5)cc4c32)c1 [JS25]
IC50 (DoHH-2 cells (DLBCL)): 0.52 ± 0.02 µM | IC50 (WA-C3CD5+ cells (CLL)): 3.5 µM | IC50 (Mo1043 cells (CLL)): 3.4 ± 0.01 µM | Metastasis volume, Brain, Average (Raji cells; 10 mg/kg): 1.13 mm³ | Metastasis volume, Liver, Average (Raji cells; 10 mg/kg): 27.34 mm³ | Metastasis volume, Lung, Average (Raji cells; 10 mg/kg): 26.04 mm³ | Metastasis volume, Spinal, Average (Raji cells; 10 mg/kg): 87.31 mm³ | Secondary tumour, Average (Raji cells; 10 mg/kg): 16.88 mm³ | Metastasis volume, Brain, single animals (Raji cells; 10 mg/kg): 0.92 mm³ and 0.98 mm³ and 2.33 mm³ and 0.15 mm³ and 1.27 mm³ | Metastasis volume, Liver, single animals (Raji cells; 10 mg/kg): 0.00 mm³ (2×) and 9.94 mm³ and 83.71 mm³ and 43.05 mm³ | Metastasis volume, Lung, single animals (Raji cells; 10 mg/kg): 0.00 mm³ (4×) and 130.18 mm³ | Metastasis volume, Spinal, single animals (Raji cells; 10 mg/kg): 18.31 mm³ and 109.42 mm³ and 122.01 mm³ and 88.70 mm³ and 98.09 mm³ | Secondary tumour, single animals (Raji cells; 10 mg/kg): 0.00 mm³ (4×) and 84.38 mm³ | reduction in percentage of metastases (Raji cells; 20 mg/kg i.p. every 2 days, n = 5/group): 70% | Metastasis volume, Brain, Average (Raji cells; 20 mg/kg): 0.26 mm³ | Metastasis volume, Liver, Average (Raji cells; 20 mg/kg): 1.34 mm³ | Metastasis volume, Lung, Average (Raji cells; 20 mg/kg): 0.00 mm³ | Metastasis volume, Spinal, Average (Raji cells; 20 mg/kg): 27.10 mm³ | Secondary tumour, Average (Raji cells; 20 mg/kg): 37.98 mm³ | Metastasis volume, Brain, single animals (Raji cells; 20 mg/kg): 0.44 mm³ and 0.03 mm³ and 0.82 mm³ and 0.00 mm³ (2×) | Metastasis volume, Liver, single animals (Raji cells; 20 mg/kg): 0.00 mm³ and 2.00 mm³ and 3.35 mm³ and 0.64 mm³ and 0.70 mm³ | Metastasis volume, Lung, single animals (Raji cells; 20 mg/kg): 0.00 mm³ | Metastasis volume, Spinal, single animals (Raji cells; 20 mg/kg): 36.97 mm³ and 12.59 mm³ and 70.62 mm³ and 14.65 mm³ and 0.69 mm³ | Secondary tumour, single animals (Raji cells; 20 mg/kg): 0.00 mm³ and 91.12 mm³ and 86.92 mm³ and 8.82 mm³ and 3.06 mm³ | reduction in secondary tumor formation (Raji cells; JS25 10 and 20 mg/kg i.p. every 2 days, n = 5/group): 71–88% | reduction in solid (subcutaneous) tumor size (Raji cells; JS25 10 and 20 mg/kg i.p. every 2 days, relative to control): 30–40%
